Experimental data taken from patent publication US9486447B2, “Compositions and methods for controlling neuronal excitation” (The General Hospital Corporation, priority 2011, dated 2016).

Experiments:
[1] = target: T1, hTRPA1 C621S (Homo sapiens, UniProt O75762, C621S); assay: Calcium imaging of transfected HEK cells; assay type: cell-based; details: compared with WT channels
T1 construct: expressed in transfected cells; host or cells: HEK293
Procedure: (§1) Reactive electrophilic compounds activate TRPA1 channels through the covalent modification of specific cysteine residues including those at amino acid positions 621, 633, and 856. Point mutations in these cysteines can reduce hTRPA1 activation by specific ligands without disrupting overall channel function^39,40. To determine if these cysteine residues are also important for TRPA1 activation by optovin, intracellular calcium levels were measured in cells transfected with wildtype and mutant hTRPA1 channels. […] Rhodanine and hydantoin are photoelectric moieties used in photovoltaic panels and other photochemical applications^41,42. Nevertheless, photosensitization alone is insufficient to grant optovin its unusual biological activity. For example, optovin is phenotypically unique compared to 171 additional rhodanine-containing compounds contained in the screening library (data not shown).
(§2) HEK293 cells were plated onto poly-lysine-coated glass bottom culture dishes (MatTek Corp), and grown in Dulbecco's Modified Eagle's Medium (DMEM, Sigma) supplemented with 10% fetal bovine serum and 100 U/mL penicillin and 100 μg/ml streptomycin. After 24 hrs, cells were transfected, according to manufacturer's instructions, in Opti-MEM media, using 4 μl lipofectamine 2000 (Invitrogen), 0.5 ug EGFP in pcDNA, and 0.3 μg TrpA1 DNA per dish. Media was replaced after 2 hours, and cells were cultured for an additional 17 hours. As previously described for neurons, HEK cells were washed with assay buffer (HBSS Gibco 14025, supplemented with 9 mM HEPES, 11 mM D-glucose, 0.1% fatty-acid free BSA, pH 7.3) and incubated for 1 h with 2 μM Fura2-AM (Invitrogen) with 0.2% pluronic (Invitrogen) in assay buffer in the dark at room temperature. The cells were then washed with assay buffer and allowed to equilibrate at room temperature for 30 min prior to imaging. At the start of the imaging session for each dish, cells were replaced with DMSO-assay buffer. After 50 seconds of imaging, assay buffer was aspirated by hand, and replaced with 100 μM optovin dissolved in the DMSO-assay buffer solution. […]

[2] = target: T2, hTRPA1 C633S (Homo sapiens, UniProt O75762, C633S); assay: Calcium imaging of transfected HEK cells; assay type: cell-based; details: compared with WT channels
T2 construct: expressed in transfected cells; host or cells: HEK293
Procedure: as §1, §2

[3] = target: T3, hTRPA1 C633S/C856S double mutant (Homo sapiens, UniProt O75762, C633S/C856S); assay: Calcium imaging of transfected HEK cells; assay type: cell-based; details: compared with WT channels
T3 construct: expressed in transfected cells; host or cells: HEK293
Procedure: as §1, §2

[4] = target: hERG potassium channel (Homo sapiens, UniProt Q12809); assay: hERG inhibition, FluxOR system; assay type: cell-based; details: with or without prior exposure to light
Procedure: Optovin (PDSP 22594) was tested for hERG inhibition using the FluxOR system with cisapride as a positive control.

[5] = target: 5-HT1A (Homo sapiens, UniProt P08908); assay: NIMH PDSP binding assay; details: primary screening, mean of N = 4 determinations
Source text: (§3) To determine if optovin's mechanism of action could be predicted via behavioral profiling^30,32, optovin's behavioral profile was compared to the behavioral profiles of 700 annotated neuroactive compounds tested in triplicate. These compounds include ligands targeting the adrenergic, serotonergic, histaminergic, dopaminergic, cholinergic and glutamatergic pathways. […] To gain insight into optovin's mechanism of action, optovin and two active optovin analogs were profiled using the National Institutes of Mental Health Psychoactive Drug Screening Program (NIMH PDSP) to determine their activities against a panel of human and rodent CNS receptors, channels and transporters.
(§4) Activity determinations were generously provided by the National Institute of Mental Health's Psychoactive Drug Screening Program, Contract # HHSN-271-2008-00025-C(NIMH PDSP). Complete assay details are found on-line at: http://pdsp.med.unc.edu/UNC-CH %20Protocol %20Book.pdf

[6] = target: 5-HT2A (Homo sapiens, UniProt P28223); assay: NIMH PDSP binding assay; details: primary screening, mean of N = 4 determinations
Source text: as §3, §4

[7] = target: A4B4 (Rattus norvegicus, UniProt P09483+P12392); assay: NIMH PDSP binding assay; details: primary screening, mean of N = 4 determinations
Source text: as §3, §4

[8] = target: Alpha2A (Homo sapiens, UniProt P08913); assay: NIMH PDSP binding assay; details: primary screening, mean of N = 4 determinations
Source text: as §3, §4

[9] = target: T4, Beta1 (Homo sapiens, UniProt P08588); assay: NIMH PDSP binding assay; details: primary screening, mean of N = 4 determinations
T4 construct: NIMH PDSP
Source text: as §3, §4

[10] = target: T5, D4 (Homo sapiens, UniProt P21917); assay: NIMH PDSP binding assay; details: primary screening, mean of N = 4 determinations
T5 construct: NIMH PDSP
Source text: as §3, §4

[11] = target: T6, H1 (Homo sapiens, UniProt P35367); assay: NIMH PDSP binding assay; details: primary screening, mean of N = 4 determinations
T6 construct: NIMH PDSP
Source text: as §3, §4

[12] = target: T7, SERT (Homo sapiens, UniProt P31645); assay: NIMH PDSP binding assay; details: primary screening, mean of N = 4 determinations
T7 construct: NIMH PDSP
Source text: as §3, §4

5-HT2A, sequence (P28223 whole entry, species assumed): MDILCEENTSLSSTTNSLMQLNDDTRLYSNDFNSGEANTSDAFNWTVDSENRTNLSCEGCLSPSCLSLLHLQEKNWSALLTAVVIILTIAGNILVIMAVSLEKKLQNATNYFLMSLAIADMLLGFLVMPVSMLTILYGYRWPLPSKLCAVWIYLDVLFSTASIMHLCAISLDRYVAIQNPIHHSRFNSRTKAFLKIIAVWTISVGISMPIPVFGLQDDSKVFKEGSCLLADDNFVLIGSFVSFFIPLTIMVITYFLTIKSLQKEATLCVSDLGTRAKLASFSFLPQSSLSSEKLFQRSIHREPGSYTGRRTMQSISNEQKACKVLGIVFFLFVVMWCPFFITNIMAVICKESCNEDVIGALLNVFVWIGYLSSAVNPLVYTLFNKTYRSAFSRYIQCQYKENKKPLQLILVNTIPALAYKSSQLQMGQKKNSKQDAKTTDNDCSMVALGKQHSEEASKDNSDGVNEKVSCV
T2 sequence (O75762 whole entry C633S): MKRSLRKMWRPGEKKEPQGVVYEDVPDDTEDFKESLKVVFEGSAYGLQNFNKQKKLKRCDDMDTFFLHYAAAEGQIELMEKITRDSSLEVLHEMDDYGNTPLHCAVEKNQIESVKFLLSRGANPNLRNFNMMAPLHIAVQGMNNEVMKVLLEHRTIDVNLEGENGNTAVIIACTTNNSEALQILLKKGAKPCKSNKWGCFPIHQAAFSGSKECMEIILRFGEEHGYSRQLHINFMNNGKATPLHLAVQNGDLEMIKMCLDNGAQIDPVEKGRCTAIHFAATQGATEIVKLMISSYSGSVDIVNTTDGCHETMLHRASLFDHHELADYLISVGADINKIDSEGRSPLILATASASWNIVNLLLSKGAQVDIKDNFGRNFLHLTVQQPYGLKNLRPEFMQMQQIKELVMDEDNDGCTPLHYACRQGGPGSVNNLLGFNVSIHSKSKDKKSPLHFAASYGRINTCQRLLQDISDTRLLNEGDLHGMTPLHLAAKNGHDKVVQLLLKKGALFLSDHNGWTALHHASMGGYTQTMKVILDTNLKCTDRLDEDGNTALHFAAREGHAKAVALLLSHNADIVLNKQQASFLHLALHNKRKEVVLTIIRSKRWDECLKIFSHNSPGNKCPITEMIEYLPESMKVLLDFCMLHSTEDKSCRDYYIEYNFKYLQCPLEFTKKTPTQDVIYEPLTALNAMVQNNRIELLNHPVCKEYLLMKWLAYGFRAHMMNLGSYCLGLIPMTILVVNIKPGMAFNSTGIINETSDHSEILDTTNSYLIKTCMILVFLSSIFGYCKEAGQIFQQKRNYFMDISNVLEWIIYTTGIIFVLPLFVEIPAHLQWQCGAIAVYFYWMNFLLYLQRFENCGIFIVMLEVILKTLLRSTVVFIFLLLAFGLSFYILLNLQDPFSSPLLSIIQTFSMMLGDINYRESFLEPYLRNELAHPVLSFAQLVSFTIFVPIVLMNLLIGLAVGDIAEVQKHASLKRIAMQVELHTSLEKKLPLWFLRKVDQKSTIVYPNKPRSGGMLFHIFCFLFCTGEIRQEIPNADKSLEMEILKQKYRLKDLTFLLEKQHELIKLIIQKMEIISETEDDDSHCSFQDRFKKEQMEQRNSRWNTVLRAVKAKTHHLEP
T4 sequence (P08588 whole entry): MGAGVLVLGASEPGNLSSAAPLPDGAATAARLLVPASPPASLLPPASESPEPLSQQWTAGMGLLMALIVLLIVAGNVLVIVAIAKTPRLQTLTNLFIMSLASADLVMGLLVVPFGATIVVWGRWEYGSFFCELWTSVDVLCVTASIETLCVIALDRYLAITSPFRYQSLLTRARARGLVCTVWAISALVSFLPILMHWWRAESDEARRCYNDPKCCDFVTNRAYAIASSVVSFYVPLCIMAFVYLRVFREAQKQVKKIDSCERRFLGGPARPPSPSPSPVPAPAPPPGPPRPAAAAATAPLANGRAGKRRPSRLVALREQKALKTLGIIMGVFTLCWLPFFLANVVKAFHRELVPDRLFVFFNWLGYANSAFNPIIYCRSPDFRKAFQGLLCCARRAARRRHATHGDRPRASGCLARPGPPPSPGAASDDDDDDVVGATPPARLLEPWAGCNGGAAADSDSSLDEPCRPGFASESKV
5-HT1A, sequence (P08908 whole entry, species assumed): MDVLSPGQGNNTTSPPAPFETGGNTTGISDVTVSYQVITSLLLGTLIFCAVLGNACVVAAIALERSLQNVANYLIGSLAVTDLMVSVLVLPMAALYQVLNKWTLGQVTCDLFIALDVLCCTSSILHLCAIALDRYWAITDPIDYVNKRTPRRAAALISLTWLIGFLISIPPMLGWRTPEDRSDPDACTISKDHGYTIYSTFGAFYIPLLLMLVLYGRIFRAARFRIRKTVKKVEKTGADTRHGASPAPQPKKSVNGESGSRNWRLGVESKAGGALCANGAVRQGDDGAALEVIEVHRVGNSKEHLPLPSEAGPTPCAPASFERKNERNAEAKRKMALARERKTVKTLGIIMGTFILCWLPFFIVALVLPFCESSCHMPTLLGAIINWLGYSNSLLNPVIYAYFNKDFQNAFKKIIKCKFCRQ
A4B4, sequence (P09483 31-630): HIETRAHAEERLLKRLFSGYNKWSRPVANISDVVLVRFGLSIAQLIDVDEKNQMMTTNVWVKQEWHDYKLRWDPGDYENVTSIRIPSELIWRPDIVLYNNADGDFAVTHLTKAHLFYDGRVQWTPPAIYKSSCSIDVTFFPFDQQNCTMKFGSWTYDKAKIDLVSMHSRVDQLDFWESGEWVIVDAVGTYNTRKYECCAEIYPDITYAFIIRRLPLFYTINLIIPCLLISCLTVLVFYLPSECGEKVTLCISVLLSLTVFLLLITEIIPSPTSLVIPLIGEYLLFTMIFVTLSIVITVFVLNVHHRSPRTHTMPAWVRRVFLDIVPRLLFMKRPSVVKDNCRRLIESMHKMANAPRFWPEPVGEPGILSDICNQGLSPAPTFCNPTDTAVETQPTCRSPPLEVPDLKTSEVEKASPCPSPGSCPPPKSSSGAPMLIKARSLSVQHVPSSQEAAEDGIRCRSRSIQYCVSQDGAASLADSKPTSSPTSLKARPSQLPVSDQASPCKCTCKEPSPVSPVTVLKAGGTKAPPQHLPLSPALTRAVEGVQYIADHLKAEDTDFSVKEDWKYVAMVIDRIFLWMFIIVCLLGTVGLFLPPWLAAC
A4B4, sequence (P12392 21-495): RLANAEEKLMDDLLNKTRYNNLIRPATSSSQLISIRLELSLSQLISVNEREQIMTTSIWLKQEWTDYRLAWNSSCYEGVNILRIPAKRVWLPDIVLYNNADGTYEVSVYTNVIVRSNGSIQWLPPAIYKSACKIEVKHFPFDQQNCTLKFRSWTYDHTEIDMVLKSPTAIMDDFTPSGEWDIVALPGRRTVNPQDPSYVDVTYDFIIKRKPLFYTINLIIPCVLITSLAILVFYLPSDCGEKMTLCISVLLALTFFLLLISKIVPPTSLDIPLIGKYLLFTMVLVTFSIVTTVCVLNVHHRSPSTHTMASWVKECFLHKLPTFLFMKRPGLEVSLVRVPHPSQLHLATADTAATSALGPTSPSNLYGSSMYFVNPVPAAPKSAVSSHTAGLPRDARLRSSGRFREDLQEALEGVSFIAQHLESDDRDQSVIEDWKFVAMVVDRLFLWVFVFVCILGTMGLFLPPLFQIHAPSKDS
T6 sequence (P35367 whole entry): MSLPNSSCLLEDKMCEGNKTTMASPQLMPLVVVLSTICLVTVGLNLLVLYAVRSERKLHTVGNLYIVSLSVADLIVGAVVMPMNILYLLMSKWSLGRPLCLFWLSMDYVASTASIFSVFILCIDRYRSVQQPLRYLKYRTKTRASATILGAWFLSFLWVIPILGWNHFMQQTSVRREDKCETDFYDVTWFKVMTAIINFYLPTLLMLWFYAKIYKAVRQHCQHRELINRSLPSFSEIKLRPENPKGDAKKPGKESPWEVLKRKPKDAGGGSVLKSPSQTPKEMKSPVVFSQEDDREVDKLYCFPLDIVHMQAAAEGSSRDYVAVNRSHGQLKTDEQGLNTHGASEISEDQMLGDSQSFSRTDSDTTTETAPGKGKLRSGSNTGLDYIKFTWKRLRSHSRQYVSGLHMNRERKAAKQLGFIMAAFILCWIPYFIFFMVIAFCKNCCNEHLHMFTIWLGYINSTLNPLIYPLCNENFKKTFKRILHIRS
Alpha2A, sequence (P08913 whole entry): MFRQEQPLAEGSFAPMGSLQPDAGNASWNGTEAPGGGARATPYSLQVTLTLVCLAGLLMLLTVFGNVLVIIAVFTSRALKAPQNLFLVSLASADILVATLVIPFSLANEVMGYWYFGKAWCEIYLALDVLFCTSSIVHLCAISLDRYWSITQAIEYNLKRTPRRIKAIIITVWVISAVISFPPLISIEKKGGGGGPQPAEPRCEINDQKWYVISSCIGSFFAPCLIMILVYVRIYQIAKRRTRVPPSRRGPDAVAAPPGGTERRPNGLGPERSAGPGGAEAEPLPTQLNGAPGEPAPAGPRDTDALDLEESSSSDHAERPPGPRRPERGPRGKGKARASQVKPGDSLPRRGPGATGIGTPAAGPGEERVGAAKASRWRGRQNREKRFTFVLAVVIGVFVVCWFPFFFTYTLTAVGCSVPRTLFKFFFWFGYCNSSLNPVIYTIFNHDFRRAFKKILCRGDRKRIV
T1 sequence (O75762 whole entry C621S): as the sequence (O75762 whole entry C633S) above, with C621S, S633C counted along it
T3 sequence (O75762 whole entry C633S/C856S): as the sequence (O75762 whole entry C633S) above, with C856S counted along it

SMILES: Cc1cc(/C=C2/SC(=S)NC2=O)c(C)n1-c1cccnc1 [optovin]
- response to light and optovin (intracellular calcium) [1]: significantly decreased response
- response to light and optovin (intracellular calcium) [2]: significantly decreased response
- response to light and optovin (intracellular calcium) [3]: significantly decreased response
- effect on hERG activity [4]: no effect on hERG activity
- Avg % inhibition (5-HT1A) [5]: 6.7%
- Avg % inhibition (5-HT2A) [6]: −1.1%
- Avg % inhibition (A4B4) [7]: −8.8%
- Avg % inhibition (Alpha2A) [8]: 40.5%
- Avg % inhibition (Beta1) [9]: 19.4%
- Avg % inhibition (D4) [10]: 0.2%
- Avg % inhibition (H1) [11]: 1.1%
- Avg % inhibition (SERT) [12]: 75.8%
